Series [1] is described as follows: Pharmacokinetic parameters in SD rats. The format is in vivo, Sprague-Dawley rats. As to conditions: single oral 3 mg/kg in 30% PEG400, plasma; for CL/F / AUC(0-t) / Cmax / Tmax / half-life: Sprague-Dawley, rat; for AUC(0-t): read-out: AUC0-t (mean ± SD); for half-life: read-out: t1/2 (mean ± SD) (converted). As for the experimental part:
The pharmacokinetic study of each test compound was conducted in 4 Sprague-Dawley rats following a single oral administration of 3 mg/kg of the compound. The dose was prepared by dissolving test article in appropriate volume of 30% PEG400. The plasma samples were collected from the orbital plexus at 0.083, 0.25, 0.50, 1.0, 2.0, 4.0, 6.0, 8.0, 12 and 24 hours post dose, and the plasma concentrations were determined by a developed LC-MS/MS method.

The test system of another series is SD rats. In words: Urinary glucose excretion in SD rats. The format is in vivo. As to conditions: 1 mg/kg oral. The procedure:
Each test compound was dissolved in 30% PEG400 and administered orally to overnight-fasted SD rats by gavage at the dose level of 1 mg/kg. Control rats were given 30% PEG400 only. One hour post dosing, glucose solution (2 g/kg, 10 mL/kg) was administered by oral gavage. Urine was collected within metabolic cages from 0 to 4 hours, and 4 to 24 hours post-dosing for urine volume and glucose measurement. Food was removed 16 hours before dosing and then provided 4 hours after dosing. Water was supplied ad libitum. The concentration of urinary glucose was determined at 4 hours and 24 hours post-dose using a biochemistry analyzer. Results were recorded for the periods 0-4 hours, 4-24 hours and 0-24 hours, and expressed as a percentage of the urinary glucose excretion (UGE) seen with reference compound A, which was run as a positive control in all experiments.

The next series concerns beagle dogs. The series is described as follows: Urinary glucose excretion in beagle dogs. The format is in vivo. As for the experimental part: Each test compound was dissolved in 10% PEG400 and administered orally to overnight-fasted beagle dogs by gavage at the dose level of 0.03 mg/kg. Control dogs were given 10% PEG400 only. One hour post dosing, glucose solution (2 g/kg, 5 mL/kg) was administered by oral gavage. Urine was collected within metabolic cages from 0 to 8 hours, and 8 to 24 hours post-dosing for urine volume and glucose measurement. Food was removed 16 hours before dosing and then provided 3 hours after dosing. Water was supplied ad libitum. The concentration of urinary glucose was determined at 8 hours and 24 hours post-dose using a biochemistry analyzer.

The nature of series [2]: Pharmacokinetic parameters in Beagle dogs. The format is in vivo. As to conditions: dog, single oral 1 mg/kg in 30% PEG400, plasma; for AUC(0-t): read-out: AUC0-t (mean ± SD); for CL/F: read-out: CL/F (mean ± SD) (converted); for Cmax: read-out: Cmax (mean ± SD); for Tmax: read-out: tmax (mean ± SD). As for the experimental part: The pharmacokinetic study of each test compound was conducted in three Beagle dogs following a single oral administration of 1 mg/kg of the compound. The dose was prepared by dissolving test article in appropriate volume of 30% PEG400. The plasma samples were collected from the cephalic vein pre-dose and at 0.25, 0.50, 1.0, 2.0, 4.0, 6.0, 8.0, 12 and 24 hours post dose, and the plasma concentrations were determined by a developed LC-MS/MS method.

Setting [3] is: separate experiment (Table 4A), 0-24 h.

`[2H]C([2H])(C)Oc1ccc(Cc2cc([C@@H]3O[C@H](CO)[C@@H](O)[C@H](O)[C@H]3O)ccc2Cl)cc1` [24a, (2S,3R,4R,5S,6R)-2-(4-chloro-3-(4-(ethoxy-1,1′-d)benzyl)phenyl)-6-(hydroxymethyl)tetrahydro-2H-pyran-3,4,5-triol]: in series [1], the CL/F is 2.4 mL/min/kg, the AUC(0-t) turned out to be 20300 ± 1610 ng·h/mL, the “Cmax (mean ± SD)” value amounted to 2923 ± 393 ng/mL and the “t1/2 (mean ± SD)” value was 4.56 ± 0.64 h. In series [1], the “tmax (mean ± SD)” value is 0.88 ± 0.75 h.

Consider `[2H]C([2H])([2H])Oc1ccc(Cc2cc([C@]3([2H])O[C@H](CO)[C@@H](O)[C@H](O)[C@H]3O)ccc2Cl)cc1` [24e, (2S,3R,4R,5S,6R)-2-(4-chloro-3-(4-(methoxy-d3)benzyl)phenyl)-6-(hydroxymethyl)tetrahydro-2H-pyran-2-d-3,4,5-triol], for which the “Urinary Glucose Excretion in Rats, 0-4 h, % relative to Ref A” value with SD rats (0-4 h) worked out at 162%. Further, the “Urinary Glucose Excretion in Rats, 0-24 h, % relative to Ref A” value in the series on SD rats (0-24 h) is reported as 101%. For the same compound, the “Urinary Glucose Excretion in Rats, 4-24 h, % relative to Ref A” value with SD rats (4-24 h) amounted to 97%. In addition, the “Urinary Glucose Excretion in Rats, 0-4 h (mean ± SD)” value in the series on SD rats (glucose 2 g/kg 1 h post dose, 0-4 h) worked out at 236 ± 48 mg. The “Urinary Glucose Excretion in Rats, 0-24 h (mean ± SD)” value in the series on SD rats (glucose 2 g/kg 1 h post dose, 0-24 h) was found to be 2525 ± 266 mg. Besides, the “Urinary Glucose Excretion in Rats, 4-24 h (mean ± SD)” value in the series on SD rats (glucose 2 g/kg 1 h post dose, 4-24 h) amounted to 2288 ± 287 mg.

`OC[C@H]1O[C@@H](c2ccc(Cl)c(Cc3ccc(C4CC4)cc3)c2)[C@H](O)[C@@H](O)[C@@H]1O` [Ref C, (2S,3R,4R,5S,6R)-2-(4-chloro-3-(4-cyclopropylbenzyl)phenyl)-6-(hydroxymethyl)tetrahydro-2H-pyran-3,4,5-triol, reference compound]: in series [1], the CL/F is 5.2 mL/min/kg; the peak concentration (Cmax) (commonly the highest concentration seen after dosing) is 1050 ± 230 ng/mL; the Tmax (as a rule, the time at which the peak concentration occurs) was found to be 3 ± 1.15 h; the AUC(0-t) amounted to 9770 ± 2180 ng·h/mL. The half-life in series [1] was 4.28 ± 0.8 h.

As to `OC[C@H]1O[C@@H](c2ccc(Cl)c(Cc3ccc(OCCOCC(F)F)cc3)c2)[C@H](O)[C@@H](O)[C@@H]1O` [Ref F, (2S,3R,4R,5S,6R)-2-(4-chloro-3-(4-(2-(2,2-difluoroethoxy)ethoxy)benzyl)phenyl)-6-(hydroxymethyl)tetrahydro-2H-pyran-3,4,5-triol, reference compound], the “Urinary Glucose Excretion in Dogs, 0-8 h (mean ± SD)” value with beagle dogs (separate experiment (Table 4A), 0-8 h) is recorded as 1927 ± 307 mg. In addition, in the series on beagle dogs (setting [3]), the “Urinary Glucose Excretion in Dogs, 0-24 h (mean ± SD)” value worked out at 13438 ± 5237 mg. Besides, the “Urinary Glucose Excretion in Dogs, 8-24 h (mean ± SD)” value in the series with beagle dogs (separate experiment (Table 4A), 8-24 h) is 11511 ± 5327 mg. Besides, in series [2], the AUC(0-t) was 4920 ± 484 ng·h/mL, the CL/F was 3.17 mL/min/kg, the Cmax turned out to be 889 ± 65.4 ng/mL and the Tmax came to 0.4 ± 0.1 h.

For `OC[C@H]1O[C@@H](c2ccc(Cl)c(Cc3ccc(OCCOC4CC4)cc3)c2)[C@H](O)[C@@H](O)[C@@H]1O` [Ref G, (2S,3R,4R,5S,6R)-2-(4-chloro-3-(4-(2-cyclopropoxyethoxy)benzyl)phenyl)-6-(hydroxymethyl)tetrahydro-2H-pyran-3,4,5-triol, reference compound], in series [1], the CL/F is 11.8 mL/min/kg, the Cmax was determined as 594 ± 85.8 ng/mL, the Tmax came out at 1.88 ± 1.55 h and the AUC(0-t) stood at 4240 ± 405 ng·h/mL. In series [1], the half-life is 3.39 ± 0.68 h.

On to `[2H]C([2H])(c1ccc(OC([2H])([2H])C([2H])([2H])[2H])cc1)c1cc([C@@H]2O[C@H](CO)[C@@H](O)[C@H](O)[C@H]2O)ccc1Cl` [compound 16, (2S,3R,4R,5S,6R)-2-(4-chloro-3-((4-(ethoxy-d5)phenyl)methyl-d2)phenyl)-6-(hydroxymethyl)tetrahydro-2H-pyran-3,4,5-triol], for which, in series [1], the CL/F is 2.3 mL/min/kg, the AUC(0-t) worked out at 21000 ± 4370 ng·h/mL, the “Cmax (mean ± SD)” value worked out at 2683 ± 471 ng/mL and the “t1/2 (mean ± SD)” value is recorded as 5.70 ± 0.63 h. The “tmax (mean ± SD)” value in series [1] is on record as 1.00 ± 0.71 h. Also, the “Urinary Glucose Excretion in Dogs, 0-8 h (mean ± SD)” value in the series with beagle dogs (0.03 mg/kg oral, glucose 2 g/kg 1 h post dose, 0-8 h (Table 4)) worked out at 4362 ± 818 mg. In the series with beagle dogs (0.03 mg/kg oral, glucose 2 g/kg 1 h post dose, 0-24 h (Table 4)), the “Urinary Glucose Excretion in Dogs, 0-24 h (mean ± SD)” value amounted to 15357 ± 2514 mg. For the same compound, the “Urinary Glucose Excretion in Dogs, 8-24 h (mean ± SD)” value in the series with beagle dogs (0.03 mg/kg oral, glucose 2 g/kg 1 h post dose, 8-24 h (Table 4)) is reported as 10995 ± 1987 mg.

Regarding `[2H]C([2H])(c1ccc(C2CC2)cc1)c1cc([C@@H]2O[C@H](CO)[C@@H](O)[C@H](O)[C@H]2O)ccc1Cl` [compound 54, (2S,3R,4R,5S,6R)-2-(4-chloro-3-((4-cyclopropylphenyl)methyl-d2)phenyl)-6-(hydroxymethyl)tetrahydro-2H-pyran-3,4,5-triol], in series [1], the CL/F was 4.4 mL/min/kg, the Cmax came out at 1270 ± 138 ng/mL, the Tmax was 2 h and the AUC(0-t) came to 10600 ± 1600 ng·h/mL. Moreover, the half-life in series [1] was 6.08 ± 1.92 h.

With `[2H]C([2H])(c1ccc(OCCOCC(F)F)cc1)c1cc([C@@H]2O[C@H](CO)[C@@H](O)[C@H](O)[C@H]2O)ccc1Cl` [compound 87, (2S,3R,4R,5S,6R)-2-(4-chloro-3-((4-(2-(2,2-difluoroethoxy)ethoxy)phenyl)methyl-d2)phenyl)-6-(hydroxymethyl)-tetrahydro-2H-pyran-3,4,5-triol], in the series with beagle dogs (setting [3]), the “Urinary Glucose Excretion in Dogs, 0-24 h (mean ± SD)” value amounted to 16858 ± 674 mg. Also, in series [2], the AUC(0-t) amounted to 8880 ± 1440 ng·h/mL, the CL/F is 1.85 mL/min/kg, the highest concentration (Cmax) came to 1580 ± 282 ng/mL and the Tmax came to 0.6 ± 0.4 h.

As to `[2H]C([2H])(COc1ccc(Cc2cc([C@@H]3O[C@H](CO)[C@@H](O)[C@H](O)[C@H]3O)ccc2Cl)cc1)OC1CC1` [compound 95, (2S,3R,4R,5S,6R)-2-(4-chloro-3-(4-(2-cyclopropoxy(ethoxy-2,2-d2))benzyl)phenyl)-6-(hydroxymethyl)tetrahydro-2H-pyran-3,4,5-triol], in series [1], the CL/F was 9.2 mL/min/kg, the Cmax is 710 ± 76.4 ng/mL, the Tmax amounted to 2.13 ± 1.44 h and the AUC(0-t) came to 5240 ± 328 ng·h/mL. Moreover, the half-life in series [1] is 4.83 ± 1.42 h.
